Measured values: US7381744B1, “Method of treating osteoporosis comprising vacuolar-type (H+)-ATPase-inhibiting compounds” (The United States of America as represented by the …, priority 1999, dated 2008)

Key:
[1] = tested on: mammalian vacuolar-type (H+)-ATPase (from chromaffin granule membranes); test: mammalian vacuolar-type (H+)-ATPase inhibition, side-by-side test; format: biochemical; settings: chromaffin granule membranes; side-by-side test
Description: (§1) The inhibitory data were obtained using the same procedures and biological preparations described in Bowman et al., Proc. Natl. Acad. Sci. USA, 85, 7972-7976 (November 1988).

[2] = tested on: fungal vacuolar-type (H+)-ATPase (from Neurospora crassa); test: fungal vacuolar-type (H+)-ATPase inhibition, side-by-side test; format: biochemical
Description: as §1

For `C/C=C/[C@H]1O[C@@](O)([C@@H](C)[C@H](O)[C@H](C)[C@H]2OC(=O)/C(OC)=C/C(C)=C/[C@@H](C)[C@@H](O)[C@@H](CC)[C@@H](O)[C@H](C)C/C(C)=C/C=C/[C@@H]2OC)C[C@@H](O[C@H]2C[C@@H](O)[C@H](OC(N)=O)[C@@H](C)O2)[C@@H]1C` [concanamycin A, reference compound], the “inhibitory activity against mammalian vacuolar-type (H+)-ATPase” value [1] was “potent inhibitor” and the “inhibitory activity against fungal vacuolar-type (H+)-ATPase” value [2] was “potent inhibitor”.
